Structures can show the parent of a compound that is named as a salt.
Legend:
Reagent stability = type: physicochemical
Method: TMA.TFA was prepared by combining equimolar amounts of concentrated Trifluoroacetic acid (Sigma Chemical Co. or Pierce Chemical Co.) and TMA.OH (Sigma Chemical Co. or Southwestern Analytical Chemicals, Inc.) and buffering it with 0.1M phosphate, 0.1M borate, 0.05 mM EDTA (phosphoric acid, boric acid, and EDTA (free acid), neutralized with TMA.OH). Buffered TMA.TFA remained at a constant pH for at least 1 year and its refractive index indicated a loss of only 2-3% of the solutes over the same period.
TMA.TCA is ideally prepared by neutralizing highly concentrated TCA (~9.3M, or ~1.5 g/ml) with TMA.OH. […] This is ideally avoided since the efficiency of hybridization falls as the pH becomes less neutral. […] From the mass, volume and concentration of starting materials, and the volume of the final solution, the nominal concentration of the final product was calculated to be about 3M.

Proteinase K = Proteinase K (Parengyodontium album, UniProt P06873); assay: Proteinase K activity (digestion of 14C-labeled BSA); type: biochemical
Method: Prior to empirical determination, it could not be predicted whether addition of the GuSCN to TMA.TFA would produce a reagent with the capability of controlling nucleases. The extent of Proteinase K activity in GT^3 was assayed by determining its ability to digest (solubilize) ^14 C-labeled bovine serum albumin (BSA).
These experiments were done twice, and the percentages below are the averages of the two experiments; the numbers in parentheses are the experimental variations.

RNase A = biological target: T1, RNase A (Bos taurus, UniProt P61823); assay: RNase A inhibition (capturable rRNA target complex); type: biochemical; conditions: for RNase inactivated: RNase 0.125 μg/ml, 15 min; for % RNase inhibition: 37° C., 15 minutes
T1 sequence (P61823 27-150): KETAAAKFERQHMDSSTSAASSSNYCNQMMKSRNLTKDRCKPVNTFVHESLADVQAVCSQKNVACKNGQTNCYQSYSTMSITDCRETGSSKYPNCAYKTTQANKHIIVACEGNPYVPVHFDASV
Method: Though the ability of a hybridization medium to support protease activity is desirable, an equally (or more) important property is the capability of inhibiting nucleases, especially ribonucleases. […] The experimental protocol was a follows:
1) A target complex was prepared by hybridizing target rRNA (from Salmonella extracts), capture probe (dA-676), and ^32 P-labeled 3'-Riboprobe (as earlier described).
2) The target complex was diluted into each of the above four test reagents.
3) RNase A solutions of various concentrations (0-250 μg/ml in […] phosphate buffer pH7) were prepared. Into tubes of the diluted target complex was added RNase A, to one of the final concentrations noted in Table 3 below. The control comprised only phosphate buffer diluent. The mixtures were incubated at 37° C. for 15 minutes. Proteinase K was added to a final concentration of 1.25 mg/ml to stop the nuclease activity.
4) Tailed probes and hybridized complexes were captured on magnetic beads (as previously described), which were washed and counted. The level of RNase inhibition was calculated as follows. [formula]

Proteinase K, sequence (P06873 106-384): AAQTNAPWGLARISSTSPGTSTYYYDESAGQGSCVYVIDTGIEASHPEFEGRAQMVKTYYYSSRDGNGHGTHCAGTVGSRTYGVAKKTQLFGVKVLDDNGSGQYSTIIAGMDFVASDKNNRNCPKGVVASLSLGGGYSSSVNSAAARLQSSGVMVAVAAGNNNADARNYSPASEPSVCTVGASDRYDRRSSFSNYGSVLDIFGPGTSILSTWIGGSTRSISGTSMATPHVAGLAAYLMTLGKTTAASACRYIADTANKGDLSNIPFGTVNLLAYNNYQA

## C[N+](C)(C)C [TMA.TCA, Tetramethyammonium:Trichloroacetate]
Reagent stability; buffered with phosphate (0.1M) and borate (0.1M)
  pH stability: at least one month
Proteinase K
  Proteinase K activity in reagent: advantageously active

## C[N+](C)(C)C [TMA.TFA, Tetramethyammonium:Trifluoroacetate]
RNase A
  RNase A inhibition: relatively ineffective in inactivating RNase
RNase A; with Proteinase K 2.5 mg/ml
  RNase inactivated: 92%
RNase A; without the protease
  RNase inactivated: 73%
Reagent stability; buffered solution
  time at constant pH: at least 1 year

## N=C(N)N [GuSCN, Guanidinium thiocyanate]
RNase A; RNase A 0.00 ug/ml
  % RNase inhibition: 100%
RNase A; RNase A 0.13 ug/ml
  % RNase inhibition: 100%
RNase A; RNase A 1.25 ug/ml
  % RNase inhibition: 100%
RNase A; RNase A 4.17 ug/ml
  % RNase inhibition: 100%
RNase A; RNase A 12.50 ug/ml
  % RNase inhibition: 100%
Proteinase K; Proteinase K in reagent
  % BSA solubilized: 41% (+/-10%)
Proteinase K; incubation at 37° C. in reagent
  half-life of Proteinase K activity: less than an hour
